Measured values reported in patent US20230066946A1, “1,5-DIPHENYLPYRAZOLYL-3-OXYALKYL ACIDS AND 1-PHENYL-5-THIENYLPYRAZOLYL-3-OXYALKYL ACIDS AND THE USE THEREOF FOR CONTROL OF UNWANTED PLANT GROWTH” (Bayer Aktiengesellschaft, priority 2019, published 2023).

Columns and labels:
PHBPU = assay: Post-emergence herbicidal action against PHBPU; format: in vivo, Pharbitis purpurea; conditions: 320 g/ha, visual rating about 3 weeks after treatment
Procedure, shortened: (§1)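 Herbicidal effect, rated visually about 3 weeks after treatment as percent versus untreated controls. Test plants in sandy loam had received a foliar application at the one-leaf stage of 1280 or 320 g/ha, formulated as WP or EC with 0.5% additive in 600 litres per hectare water.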

AMARE [1] = assay: Post-emergence herbicidal action against AMARE; format: in vivo, Amaranthus retroflexus; conditions: visual rating about 3 weeks after treatment
Procedure, shortened: as §1

SETVI [2] = assay: Post-emergence herbicidal action against SETVI; format: in vivo, Setaria viridis; conditions: 1280 g/ha, post-emergence at one-leaf stage, rated visually after about 3 weeks vs untreated controls
Procedure, shortened: as §1

MATIN [3] = assay: Post-emergence herbicidal action against MATIN; format: in vivo, Matricaria inodora; conditions: visual rating about 3 weeks after treatment
Procedure, shortened: as §1

STEME [4] = assay: Pre-emergence herbicidal action against STEME; format: in vivo, Stellaria media; conditions: scored visually after about 3 weeks vs untreated controls
Procedure, shortened: (§2)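 Weed seeds were sown in sandy loam soil in pots and covered; compounds formulated as WP or EC were sprayed onto the covering soil as aqueous suspension/emulsion with 0.5% additive at 600 L/ha water. Application rate 1280 or 320 g/ha. Greenhouse grown; visual % activity vs untreated controls after about 3 weeks.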

AMARE [5] = assay: Pre-emergence herbicidal action against AMARE; format: in vivo, Amaranthus retroflexus; conditions: scored visually after about 3 weeks vs untreated controls; for Pre-emergence action at 320 g/ha against AMARE in %: 100% = plants have died, 0% = like control plants; for Pre-emergence action against AMARE in %: 1280 g/ha
Procedure, shortened: as §2

STEME [6] = assay: Post-emergence herbicidal action against STEME; format: in vivo, Stellaria media; conditions: visual rating about 3 weeks after treatment
Procedure, shortened: as §1

CYPES = assay: Pre-emergence herbicidal action against CYPES; format: in vivo, Cyperus esculentus; conditions: scored visually after about 3 weeks vs untreated controls, 100% = plants have died, 0% = like control plants
Text: (§3) Seeds of mono- and dicotyledonous weed plants are placed in plastic pots in sandy loam soil (doubly sown with one species each of mono- or dicotyledonous weed plants per pot) and covered with soil. The compounds of the invention, formulated in the form of wettable powders (WP) or as emulsion concentrates (EC), are then applied onto the surface of the covering soil as aqueous suspension or emulsion with addition of 0.5% additive at a water application rate equivalent to 600 litres per hectare. After the treatment, the pots are placed in a greenhouse and kept under good growth conditions for the trial plants. After about 3 weeks, the effect of the preparations is scored visually in comparison with untreated controls as percentages. For example, 100% activity=the plants have died, 0% activity=like control plants. [table] Tables 4.1-4.15 below show the effects of selected compounds of the general formula (I) according to Tables 1 to 3 on various harmful plants at an application rate corresponding to 1280 or 320 g/ha, which have been obtained by the aforementioned experimental method.

harmful plants [7] = assay: Post-emergence herbicidal action, summary of Tables 5.1-5.16; format: in vivo; conditions: result in words
Protocol: Seeds of mono- and dicotyledonous weed plants are placed in plastic pots in sandy loam soil (twin sowing with one species each of mono- or dicotyledonous weed plants per pot), covered with soil and cultivated in a greenhouse under controlled growth conditions. 2 to 3 weeks after sowing, the test plants are treated at the one-leaf stage. The compounds of the invention, formulated in the form of wettable powders (WP) or as emulsion concentrates (EC), are applied to the green parts of the plants as aqueous suspension or emulsion with addition of 0.5% additive at a water application rate equivalent to 600 litres per hectare. After the test plants have been kept in the greenhouse under optimum growth conditions for about 3 weeks, the activity of the preparations is rated visually in comparison to untreated controls. For example, 100% activity=the plants have died, 0% activity=like control plants. Tables 5.1-5.16 below show the effects of selected compounds of the general formula (I) according to Tables 1 to 3 on various harmful plants at an application rate corresponding to 1280 or 320 g/ha, which have been obtained by the aforementioned experimental method. As the results from Tables 5.1-5.16 show, compounds of the invention have good herbicidal post-emergence efficacy against a broad spectrum of weed grasses and weeds. […] For example, compounds Nos. I-002, I-006, I-022, I-056 and I-072 applied by the post-emergence method have very good herbicidal action (80% to 100% herbicidal action) against harmful plants such as Alopecurus myosuroides, Amaranthus retroflexus, Matricaria inodora, Setaria viridis, Pharbitis purpurea and Stellaria media at an application rate of 1.28 kg of active substance or less per hectare.

ALOMY [8] = assay: Post-emergence herbicidal action against ALOMY; format: in vivo, Alopecurus myosuroides; conditions: 1280 g/ha, post-emergence at one-leaf stage, rated visually after about 3 weeks vs untreated controls
Protocol: [table] Seeds of mono- and dicotyledonous weed plants are placed in plastic pots in sandy loam soil (twin sowing with one species each of mono- or dicotyledonous weed plants per pot), covered with soil and cultivated in a greenhouse under controlled growth conditions. 2 to 3 weeks after sowing, the test plants are treated at the one-leaf stage. The compounds of the invention, formulated in the form of wettable powders (WP) or as emulsion concentrates (EC), are applied to the green parts of the plants as aqueous suspension or emulsion with addition of 0.5% additive at a water application rate equivalent to 600 litres per hectare. After the test plants have been kept in the greenhouse under optimum growth conditions for about 3 weeks, the activity of the preparations is rated visually in comparison to untreated controls. For example, 100% activity=the plants have died, 0% activity=like control plants. Tables 5.1-5.16 below show the effects of selected compounds of the general formula (I) according to Tables 1 to 3 on various harmful plants at an application rate corresponding to 1280 or 320 g/ha, which have been obtained by the aforementioned experimental method.

ECHCG [9] = assay: Pre-emergence herbicidal action against ECHCG; format: in vivo, Echinochloa crus-galli; conditions: scored visually after about 3 weeks vs untreated controls, 100% = plants have died, 0% = like control plants
Procedure, shortened: as §2

VERPE [10] = assay: Pre-emergence herbicidal action against VERPE; format: in vivo, Veronica persica; conditions: 320 g/ha, scored visually after about 3 weeks vs untreated controls
Procedure, shortened: as §2

VERPE [11] = assay: Post-emergence herbicidal action against VERPE; format: in vivo, Veronica persica; conditions: 320 g/ha, visual rating about 3 weeks after treatment
Procedure, shortened: as §1

ECHCG [12] = assay: Post-emergence herbicidal action against ECHCG; format: in vivo, Echinochloa crus-galli; conditions: 1280 g/ha, post-emergence at one-leaf stage, rated visually after about 3 weeks vs untreated controls
Procedure, shortened: as §1

POLCO [13] = assay: Post-emergence herbicidal action against POLCO; format: in vivo, Polygonum convolvulus; conditions: 320 g/ha, visual rating about 3 weeks after treatment
Procedure, shortened: as §1

SETVI [14] = assay: Pre-emergence herbicidal action against SETVI; format: in vivo, Setaria viridis; conditions: 1280 g/ha, scored visually after about 3 weeks vs untreated controls
Procedure, shortened: as §2

POLCO [15] = assay: Pre-emergence herbicidal action against POLCO; format: in vivo, Polygonum convolvulus; conditions: 320 g/ha, scored visually after about 3 weeks vs untreated controls
Procedure, shortened: as §2

VIOTR = assay: Post-emergence herbicidal action against VIOTR; format: in vivo, Viola tricolor; conditions: 320 g/ha, visual rating about 3 weeks after treatment
Procedure, shortened: as §1

harmful plants [16] = assay: Pre-emergence herbicidal action, summary of Tables 4.1-4.15; format: in vivo; conditions: result in words
Text: as §3, with “plants.” for “plants. [table] Tables 4.1-4.15 below show the effects of selected compounds of the general formula (I) according to Tables 1 to 3 on various harmful plants at an application rate corresponding to 1280 or 320 g/ha, which have been obtained by the aforementioned experimental method.”
Tables 4.1-4.15 below show the effects of selected compounds of the general formula (I) according to Tables 1 to 3 on various harmful plants at an application rate corresponding to 1280 or 320 g/ha, which have been obtained by the aforementioned experimental method.
For example, compounds no. I-008, I-056, I-057, I-061, I-067, I-070 and I-072 applied by the pre-emergence method have very good action (80% to 100% herbicidal action) against harmful plants such as Alopecurus myosuroides, Amaranthus retroflexus, Matricaria inodora, Polygonum convolvulus, Setaria viridis and Stellaria media at an application rate of 1.28 kg of active substance or less per hectare.

MATIN [17] = assay: Pre-emergence herbicidal action against MATIN; format: in vivo, Matricaria inodora; conditions: 1280 g/ha, scored visually after about 3 weeks vs untreated controls
Text: as §3

ALOMY [18] = assay: Pre-emergence herbicidal action against ALOMY; format: in vivo, Alopecurus myosuroides; conditions: scored visually after about 3 weeks vs untreated controls, 100% = plants have died, 0% = like control plants
Text: as §3

Compound | Post-emergence action against PHBPU in % (PHBPU) | Post-emergence action against AMARE in % (AMARE [1]; 1280 g/ha) | Post-emergence action against SETVI in % (SETVI [2]) | Post-emergence action against MATIN in % (MATIN [3]; 1280 g/ha) | Pre-emergence action against STEME in % (STEME [4]; 1280 g/ha) | Pre-emergence action at 320 g/ha against AMARE in % (AMARE [5]) | Pre-emergence action against AMARE in % (AMARE [5]) | Post-emergence action against STEME in % (STEME [6]; 1280 g/ha) | herbicidal efficacy against harmful plants when applied post-emergence (harmful plants [7]) | Post-emergence action against ALOMY in % (ALOMY [8]) | Post-emergence action against AMARE in % (AMARE [1]; 320 g/ha) | Pre-emergence action against STEME in % (STEME [4]; 320 g/ha) | Pre-emergence action against VERPE in % (VERPE [10]) | Post-emergence action against VERPE in % (VERPE [11]) | Post-emergence action against STEME in % (STEME [6]; 320 g/ha) | Post-emergence action against ECHCG in % (ECHCG [12]) | further results
COC(=O)COc1nn(-c2ccc(F)cc2)c(-c2ccc(F)cc2)c1Cl [I-006] | 80% | 100% | 90% | 80% | 100% | 80% | 100% | 80% | very good herbicidal efficacy | 80% | – | – | – | – | – | – | Pre-emergence action at 1280 g/ha against CYPES in % (CYPES): 100%
COC(=O)COc1nn(-c2ccccc2F)c(-c2ccccc2)c1Br [I-054] | 100% | 100% | 100% | 100% | 100% | 100% | 100% | 100% | very good herbicidal efficacy | – | 90% | 100% | 100% | 80% | 90% | 90% | Post-emergence action against MATIN in % (MATIN [3]; 320 g/ha): 90%; Pre-emergence action at 1280 g/ha against ECHCG in % (ECHCG [9]): 90%; Post-emergence action against POLCO in % (POLCO [13]): 80%; Pre-emergence action against SETVI in % (SETVI [14]): 90%; Pre-emergence action against POLCO in % (POLCO [15]): 100%; Post-emergence action against VIOTR in % (VIOTR): 90%
COC(=O)COc1nn(-c2ccccc2)c(-c2cccc(F)c2)c1Cl [I-002] | 80% | 90% | 80% | 80% | 100% | 100% | 100% | 90% | very good herbicidal efficacy | 80% | 80% | 80% | 100% | 80% | 80% | 80% | herbicidal efficacy against harmful plants in the case of pre-emergence treatment (harmful plants [16]): good herbicidal efficacy; Pre-emergence action against MATIN in % (MATIN [17]): 100%; Pre-emergence action at 1280 g/ha against ALOMY in % (ALOMY [18]): 80%
